# Data taken from ChEMBL document CHEMBL1201862, “PubChem BioAssay data set” (2004).
# The source made the active and inactive calls.
# Assays:
# [1] = target: Voltage-gated inwardly rectifying potassium channel KCNH2 (Homo sapiens, UniProt Q12809); conditions: Potency;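 note: confirmatory quantitative high-throughput screen measuring inhibition of hERG channel activity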
# [2] = target: Cytochrome P450 3A4 (Homo sapiens, UniProt P08684);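 note: CYP3A4 tested as one member of a cytochrome P450 panel screen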
# [3] = target: Cytochrome P450 2D6 (Homo sapiens, UniProt P10635);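 note: CYP2D6 member of a cytochrome P450 panel assay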
# [4] = target: Phospholipase A2 (Homo sapiens, UniProt P04054); format: functional;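 note: confirmatory dose-response counterscreen on phospholipase A2, testing hits that came from an ultra-high-throughput screen for ATG4B inhibitors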
# [5] = Shn3 3'UTR reporter inhibitors, dose response, cell-based, Clone20 osteoblasts, firefly luciferase, cherry-picked (AID 624132); format: functional;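 note: firefly luciferase luminescence from reporter carrying the Shn3 3'UTR in osteoblasts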
# [6] = HepG2 cell cytotoxicity, dose response, cytotoxicity control for Shn3 inhibitor project, CellTiter-Glo, cherry-picked (AID 624134); format: functional, cell-based
# [7] = target: Cysteine protease ATG4B (Homo sapiens, UniProt Q9Y4P1); format: functional;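 note: Fluorescence-based dose-response confirmation assay measuring inhibition of ATG4B activity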
# [8] = C. albicans growth with fluconazole, confirmation, fluorescence, retest (AID 2467); format: functional, cell-based
# [9] = NIH-3T3 fibroblast cytotoxicity, dose response, cytotoxicity control, cell-based, fluorescence, Alamar Blue, secondary assay (AID 2327); format: functional;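 note: NIH-3T3 mouse fibroblasts cultured with fluconazole at 8 µg/mL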
# [10] = control 3'UTR Renilla luciferase suppression, dose response, counter-screen for Shn3 inhibitor project, cell-based, Clone20-Shn3RL, cherry-picked (AID 624133); format: functional
# [11] = target: T1, Ubiquitin-conjugating enzyme E2 N (Homo sapiens, UniProt P61088); format: functional;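 note: Dose-response confirmation in a TR-FRET assay detecting UBC13-driven polyubiquitin chain formation, inhibition measured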
# T1 sequence (P61088 whole entry): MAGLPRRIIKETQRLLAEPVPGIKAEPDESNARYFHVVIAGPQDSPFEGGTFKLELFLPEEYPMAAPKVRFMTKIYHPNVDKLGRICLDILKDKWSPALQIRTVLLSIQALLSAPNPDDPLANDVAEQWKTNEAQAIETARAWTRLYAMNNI
# [12] = system: HEK293; test: cytotoxicity in HEK293T NF-kB-Luc cells, SAR follow-up, cytotoxicity control for NF-kB activator project, cell-based, resazurin fluorescence (AID 493251); format: functional; conditions: Homo sapiens
# [13] = cytotoxicity in HEK-293T cells, dose response, cytotoxicity control for BCR NF-kB inhibitor project, luminescence, B-cell screen hits (AID 489021); format: functional, cell-based;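 note: HEK-293T cells carrying an NF-kB luciferase reporter; cells exposed to compound for about 14 hours before viability readout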
# [14] = system: A-375; test: A375 melanoma cell viability reduction, dose response, counter-screen for MITF modulator project, cherry-pick samples, set 2 (AID 540335); format: functional, cell-based; conditions: Homo sapiens
# [15] = system: INS1; test: beta cell apoptosis inhibitors, cytokine rescue, dose response, luminescence, retest (AID 449756); format: functional, cell-based; conditions: Rattus norvegicus;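 note: cell death triggered by IL-1 beta plus TNF-alpha plus IFN-gamma mixture; protective hits raise ATP signal compared with cytokine alone wells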
# [16] = target: Paired box protein Pax-8 (Homo sapiens, UniProt Q06710); test: inhibitors of PAX8-driven TPO luciferase reporter, dose response, RMG-I cells, cherry-pick (AID 687027); format: functional, cell-based;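 note: luciferase reporter driven by Pax8 target thyroperoxidase promoter measured by SteadyGlo luminescence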
# [17] = target: T2, Microphthalmia-associated transcription factor (Homo sapiens, UniProt O75030); test: TRPM1 promoter luciferase signal decrease, dose response, MITF inhibitor project, cell-based, SK-MEL-5, cherry-picked, set 3 (AID 493073); format: functional
# T2 sequence (O75030 whole entry): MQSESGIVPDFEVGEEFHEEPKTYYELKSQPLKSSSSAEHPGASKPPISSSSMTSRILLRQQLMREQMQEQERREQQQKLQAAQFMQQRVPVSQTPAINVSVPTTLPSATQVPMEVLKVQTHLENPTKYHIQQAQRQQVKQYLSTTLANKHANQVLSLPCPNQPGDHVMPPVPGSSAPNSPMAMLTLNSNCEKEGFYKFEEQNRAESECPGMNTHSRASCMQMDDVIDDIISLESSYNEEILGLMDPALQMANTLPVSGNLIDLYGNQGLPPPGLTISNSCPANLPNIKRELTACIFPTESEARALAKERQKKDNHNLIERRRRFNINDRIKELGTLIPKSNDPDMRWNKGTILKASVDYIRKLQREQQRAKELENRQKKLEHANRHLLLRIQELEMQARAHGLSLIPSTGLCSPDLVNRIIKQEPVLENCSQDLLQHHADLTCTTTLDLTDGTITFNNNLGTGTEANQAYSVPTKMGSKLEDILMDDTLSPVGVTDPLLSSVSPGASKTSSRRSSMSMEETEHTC
# [18] = target: T3, Heat shock factor protein 1 (Mus musculus, UniProt P38532); test: inhibition of MG132-induced HSE-luciferase signal, confirmation, cell-based, NIH3T3, luminescence, dose retest (AID 2382); format: functional;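 note: NIH3T3 fibroblasts with HSF1-driven luciferase reporter stressed by proteasome inhibitor MG132; luminescence from HSF1-driven luciferase expression after 8 hours of MG132 stress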
# T3 sequence (P38532 whole entry): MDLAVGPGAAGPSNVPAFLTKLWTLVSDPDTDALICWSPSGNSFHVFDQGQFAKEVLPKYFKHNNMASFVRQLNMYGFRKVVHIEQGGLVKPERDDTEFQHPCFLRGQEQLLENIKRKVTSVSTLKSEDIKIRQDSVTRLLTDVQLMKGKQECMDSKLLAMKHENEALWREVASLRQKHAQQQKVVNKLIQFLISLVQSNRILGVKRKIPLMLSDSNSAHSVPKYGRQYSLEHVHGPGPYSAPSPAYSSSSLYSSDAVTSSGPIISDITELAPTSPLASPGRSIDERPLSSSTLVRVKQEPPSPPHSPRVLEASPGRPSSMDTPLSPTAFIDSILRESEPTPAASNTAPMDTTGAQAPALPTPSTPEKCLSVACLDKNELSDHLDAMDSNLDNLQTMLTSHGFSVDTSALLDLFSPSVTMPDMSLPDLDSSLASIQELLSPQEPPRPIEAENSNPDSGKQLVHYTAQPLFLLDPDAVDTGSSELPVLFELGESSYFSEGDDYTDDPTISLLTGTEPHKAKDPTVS
# [19] = non-specific cell cytotoxicity, dose response, cytotoxicity control for PAX8 inhibitor project, plate reader, dry powder samples (AID 743021); format: functional, cell-based
# [20] = target: T4, Hexokinase HKDC1 (Homo sapiens, UniProt Q2TB90); test: HKDC1 hexokinase inhibitors, SAR follow-up, biochemical, set 2 (AID 588355); format: functional
# T4 sequence (Q2TB90 whole entry): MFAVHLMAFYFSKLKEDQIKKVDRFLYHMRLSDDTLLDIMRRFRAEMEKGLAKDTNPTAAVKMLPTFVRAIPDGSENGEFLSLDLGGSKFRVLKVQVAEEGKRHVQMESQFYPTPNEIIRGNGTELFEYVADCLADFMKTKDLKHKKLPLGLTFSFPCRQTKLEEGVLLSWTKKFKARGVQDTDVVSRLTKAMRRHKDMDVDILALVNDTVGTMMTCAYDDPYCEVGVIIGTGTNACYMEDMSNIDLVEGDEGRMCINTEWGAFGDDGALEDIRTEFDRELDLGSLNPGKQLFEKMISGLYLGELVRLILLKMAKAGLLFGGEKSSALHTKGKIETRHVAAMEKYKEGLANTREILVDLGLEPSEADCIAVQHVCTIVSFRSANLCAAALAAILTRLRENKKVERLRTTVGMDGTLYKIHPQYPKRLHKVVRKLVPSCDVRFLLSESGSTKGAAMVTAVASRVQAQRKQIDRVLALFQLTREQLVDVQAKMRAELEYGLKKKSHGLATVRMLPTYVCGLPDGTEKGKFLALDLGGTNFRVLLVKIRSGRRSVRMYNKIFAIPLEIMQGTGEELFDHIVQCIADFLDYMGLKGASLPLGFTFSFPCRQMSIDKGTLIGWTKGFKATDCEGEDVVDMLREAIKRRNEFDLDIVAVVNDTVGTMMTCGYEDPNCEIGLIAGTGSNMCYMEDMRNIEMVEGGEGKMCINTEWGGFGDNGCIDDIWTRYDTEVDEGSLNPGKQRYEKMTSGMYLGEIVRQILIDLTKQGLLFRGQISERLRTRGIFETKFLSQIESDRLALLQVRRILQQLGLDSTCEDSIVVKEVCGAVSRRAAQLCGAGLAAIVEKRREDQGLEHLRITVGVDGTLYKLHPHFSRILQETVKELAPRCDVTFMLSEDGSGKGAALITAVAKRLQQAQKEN
# [21] = target: Luciferin 4-monooxygenase (Photinus pyralis, UniProt P08659); test: firefly luciferase enzyme inhibitors, dose response, biochemical, luminescence (AID 1891)
# [22] = Luminescence Cell-Based Dose Confirmation HTS to Identify Inhibitors of Platelet Dense Granule Release. [Related pubchem assays: 1663 (Primary HTS), 1678 (Summary of Project)]; format: functional
# [23] = inhibitors of firefly luciferase expression or activity, dose response, H4 neuroglioma cells, luminescence (AID 1990); format: functional, cell-based
# [24] = Luminescence Cell-Based Dose Response HTS to Identify Inhibitors of 5'UTR Stem-Loop Driven Prion Protein mRNA Translation in H4 Neuroglioblastoma Cells. [Related pubchem assays: 1827 (Project Summary), 1813 (Primary HTS)]; format: functional
# [25] = target: T5, Hexokinase-1 (Homo sapiens, UniProt P19367); test: HK1 enzyme inhibition by HKDC1 hits, SAR follow-up, selectivity assay for HKDC1 inhibitor project, biochemical, set 2, resazurin fluorescence coupled readout (AID 588356); format: functional
# T5 sequence (P19367 whole entry): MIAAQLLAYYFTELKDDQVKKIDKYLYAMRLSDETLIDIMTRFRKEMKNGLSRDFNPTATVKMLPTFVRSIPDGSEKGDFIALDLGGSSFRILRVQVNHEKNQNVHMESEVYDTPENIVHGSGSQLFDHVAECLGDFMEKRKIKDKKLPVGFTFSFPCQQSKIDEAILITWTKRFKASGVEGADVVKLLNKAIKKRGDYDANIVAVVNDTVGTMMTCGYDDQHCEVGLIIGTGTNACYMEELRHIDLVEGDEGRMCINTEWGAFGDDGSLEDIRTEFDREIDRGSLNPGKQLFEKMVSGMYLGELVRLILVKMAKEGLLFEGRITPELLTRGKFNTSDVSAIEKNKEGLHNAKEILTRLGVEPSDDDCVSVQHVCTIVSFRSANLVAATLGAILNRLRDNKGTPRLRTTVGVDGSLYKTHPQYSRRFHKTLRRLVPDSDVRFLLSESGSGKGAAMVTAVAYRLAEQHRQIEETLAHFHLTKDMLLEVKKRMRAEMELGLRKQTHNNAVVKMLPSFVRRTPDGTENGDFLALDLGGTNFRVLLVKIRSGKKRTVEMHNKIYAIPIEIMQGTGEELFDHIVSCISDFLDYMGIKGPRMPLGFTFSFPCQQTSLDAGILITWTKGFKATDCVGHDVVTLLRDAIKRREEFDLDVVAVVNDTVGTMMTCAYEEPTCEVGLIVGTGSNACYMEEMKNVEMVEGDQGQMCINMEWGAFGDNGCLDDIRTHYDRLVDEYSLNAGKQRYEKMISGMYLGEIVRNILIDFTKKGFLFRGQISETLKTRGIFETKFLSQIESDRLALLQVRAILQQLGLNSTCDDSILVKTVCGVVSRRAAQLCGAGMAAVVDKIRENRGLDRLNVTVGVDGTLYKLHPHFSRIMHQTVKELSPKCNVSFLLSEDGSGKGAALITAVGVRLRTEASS
# [26] = target: Induced myeloid leukemia cell differentiation protein Mcl-1 (Homo sapiens, UniProt Q07820); format: functional
# [27] = target: Dual specificity protein kinase CLK1 (Homo sapiens, UniProt P49759); test: CLK1 kinase inhibitors, off-target check, dose response, selectivity assay for Dyrk1A inhibitor project, biochemical, cherry-picked samples (AID 588811)
# [28] = target: Dual specificity tyrosine-phosphorylation-regulated kinase 1A (Rattus norvegicus, UniProt Q63470); format: biochemical, Homo sapiens
# [29] = system: CHO; test: cytotoxicity in TLR9-MyD88 CHO cells, dose response, cytotoxicity control for TLR9-MyD88 binding inhibitor project, cell-based, luminescence (AID 588339); format: functional, hamster; conditions: Cricetulus griseus;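 note: CHO cells stably coexpressing TLR9 and MyD88 fusions from primary screen; compound exposure lasted 48 hours before viability readout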
# [30] = target: Tyrosyl-DNA phosphodiesterase 2 (Homo sapiens, UniProt O95551); test: human TDP2 enzyme inhibitors, dose response, biochemical, epi absorbance, IC50 (AID 743297)
# [31] = target: Short transient receptor potential channel 6 (Mus musculus, UniProt Q61143); test: TRPC6 inhibition potency of TRPC4 inhibitor analogs, dose response, selectivity assay for selective TRPC4 inhibitor project, HEK293 cells, membrane potential dye, IC50 (AID 492987); format: functional, cell-based
# Sequence of Short transient receptor potential channel 6 (Q61143 whole entry): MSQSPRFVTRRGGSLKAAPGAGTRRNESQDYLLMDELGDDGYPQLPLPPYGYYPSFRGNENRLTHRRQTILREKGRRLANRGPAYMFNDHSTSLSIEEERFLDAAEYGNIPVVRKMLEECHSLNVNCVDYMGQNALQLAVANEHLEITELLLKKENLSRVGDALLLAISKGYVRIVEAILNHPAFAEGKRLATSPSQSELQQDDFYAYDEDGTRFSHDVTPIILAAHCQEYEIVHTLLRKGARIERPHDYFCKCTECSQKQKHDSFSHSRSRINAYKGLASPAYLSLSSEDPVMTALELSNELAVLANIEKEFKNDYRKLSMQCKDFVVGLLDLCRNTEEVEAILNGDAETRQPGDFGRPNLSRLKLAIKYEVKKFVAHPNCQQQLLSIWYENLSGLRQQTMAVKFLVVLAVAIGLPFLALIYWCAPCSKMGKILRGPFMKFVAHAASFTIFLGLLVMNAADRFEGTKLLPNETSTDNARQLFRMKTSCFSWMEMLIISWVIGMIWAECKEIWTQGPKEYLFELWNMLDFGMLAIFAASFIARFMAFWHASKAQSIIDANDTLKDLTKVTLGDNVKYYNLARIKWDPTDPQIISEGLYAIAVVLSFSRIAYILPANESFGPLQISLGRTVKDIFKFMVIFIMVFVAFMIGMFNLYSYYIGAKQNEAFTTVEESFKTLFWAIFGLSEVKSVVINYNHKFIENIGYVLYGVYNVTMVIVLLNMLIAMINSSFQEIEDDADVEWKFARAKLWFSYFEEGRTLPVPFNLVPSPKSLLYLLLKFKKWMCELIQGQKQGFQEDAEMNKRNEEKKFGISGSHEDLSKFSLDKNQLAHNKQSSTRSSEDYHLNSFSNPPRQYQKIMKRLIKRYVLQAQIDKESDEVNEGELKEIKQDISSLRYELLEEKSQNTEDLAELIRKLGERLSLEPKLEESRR
# Sequence of Cysteine protease ATG4B (Q9Y4P1 whole entry): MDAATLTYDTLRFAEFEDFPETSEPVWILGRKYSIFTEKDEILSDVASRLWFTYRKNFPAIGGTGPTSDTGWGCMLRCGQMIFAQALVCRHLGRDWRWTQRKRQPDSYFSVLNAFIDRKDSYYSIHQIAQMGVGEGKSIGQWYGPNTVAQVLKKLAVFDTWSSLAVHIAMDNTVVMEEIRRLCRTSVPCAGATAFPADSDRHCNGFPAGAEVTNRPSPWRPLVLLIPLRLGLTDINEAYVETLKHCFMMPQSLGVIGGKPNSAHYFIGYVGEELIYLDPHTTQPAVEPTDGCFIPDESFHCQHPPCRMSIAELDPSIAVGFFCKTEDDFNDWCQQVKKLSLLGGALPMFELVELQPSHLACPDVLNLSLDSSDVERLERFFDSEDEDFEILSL
# Sequence of Voltage-gated inwardly rectifying potassium channel KCNH2 (Q12809 whole entry): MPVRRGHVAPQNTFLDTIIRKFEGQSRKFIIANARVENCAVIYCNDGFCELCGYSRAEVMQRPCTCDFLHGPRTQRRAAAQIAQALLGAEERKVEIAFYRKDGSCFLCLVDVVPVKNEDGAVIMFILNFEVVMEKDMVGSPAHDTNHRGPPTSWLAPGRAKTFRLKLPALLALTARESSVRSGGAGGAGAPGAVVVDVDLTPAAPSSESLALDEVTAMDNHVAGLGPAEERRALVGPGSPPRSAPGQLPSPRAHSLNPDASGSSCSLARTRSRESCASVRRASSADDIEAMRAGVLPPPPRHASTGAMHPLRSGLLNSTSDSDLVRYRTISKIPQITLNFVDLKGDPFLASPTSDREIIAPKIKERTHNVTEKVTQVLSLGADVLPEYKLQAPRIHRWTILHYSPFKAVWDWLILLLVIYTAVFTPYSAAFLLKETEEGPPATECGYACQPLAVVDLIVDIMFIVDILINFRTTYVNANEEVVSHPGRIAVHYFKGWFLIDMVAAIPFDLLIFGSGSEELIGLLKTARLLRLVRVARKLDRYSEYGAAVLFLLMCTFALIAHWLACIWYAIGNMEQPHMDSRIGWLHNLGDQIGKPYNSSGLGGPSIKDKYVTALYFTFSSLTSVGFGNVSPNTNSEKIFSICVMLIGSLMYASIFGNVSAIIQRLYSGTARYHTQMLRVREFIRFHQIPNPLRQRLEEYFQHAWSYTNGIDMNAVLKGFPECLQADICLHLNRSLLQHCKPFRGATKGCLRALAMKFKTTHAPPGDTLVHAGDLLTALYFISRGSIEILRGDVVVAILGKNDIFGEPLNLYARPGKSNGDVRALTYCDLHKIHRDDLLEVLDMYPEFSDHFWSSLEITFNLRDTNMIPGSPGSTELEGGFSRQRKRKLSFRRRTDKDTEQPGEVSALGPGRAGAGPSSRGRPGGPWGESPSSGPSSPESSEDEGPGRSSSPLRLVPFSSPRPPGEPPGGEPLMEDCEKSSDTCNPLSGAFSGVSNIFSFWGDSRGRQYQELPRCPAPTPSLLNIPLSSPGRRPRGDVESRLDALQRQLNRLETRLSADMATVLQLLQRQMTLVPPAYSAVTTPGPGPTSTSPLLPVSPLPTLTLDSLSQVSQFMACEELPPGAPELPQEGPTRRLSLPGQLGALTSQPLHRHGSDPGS
# Sequence of Cytochrome P450 2D6 (P10635 whole entry): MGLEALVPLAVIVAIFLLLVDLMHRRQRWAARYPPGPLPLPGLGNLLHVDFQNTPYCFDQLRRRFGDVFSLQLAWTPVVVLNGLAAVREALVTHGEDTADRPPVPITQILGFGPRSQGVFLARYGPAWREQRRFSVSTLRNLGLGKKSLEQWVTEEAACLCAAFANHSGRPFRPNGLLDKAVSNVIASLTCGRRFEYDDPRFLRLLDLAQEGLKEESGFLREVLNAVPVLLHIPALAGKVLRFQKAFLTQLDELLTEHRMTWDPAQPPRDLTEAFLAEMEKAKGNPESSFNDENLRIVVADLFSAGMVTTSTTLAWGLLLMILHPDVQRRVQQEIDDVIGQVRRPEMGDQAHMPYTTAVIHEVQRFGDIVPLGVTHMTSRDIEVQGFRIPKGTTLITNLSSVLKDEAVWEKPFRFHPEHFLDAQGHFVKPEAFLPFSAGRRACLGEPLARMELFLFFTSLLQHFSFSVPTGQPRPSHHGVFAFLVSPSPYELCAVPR
# Sequence of Luciferin 4-monooxygenase (P08659 whole entry): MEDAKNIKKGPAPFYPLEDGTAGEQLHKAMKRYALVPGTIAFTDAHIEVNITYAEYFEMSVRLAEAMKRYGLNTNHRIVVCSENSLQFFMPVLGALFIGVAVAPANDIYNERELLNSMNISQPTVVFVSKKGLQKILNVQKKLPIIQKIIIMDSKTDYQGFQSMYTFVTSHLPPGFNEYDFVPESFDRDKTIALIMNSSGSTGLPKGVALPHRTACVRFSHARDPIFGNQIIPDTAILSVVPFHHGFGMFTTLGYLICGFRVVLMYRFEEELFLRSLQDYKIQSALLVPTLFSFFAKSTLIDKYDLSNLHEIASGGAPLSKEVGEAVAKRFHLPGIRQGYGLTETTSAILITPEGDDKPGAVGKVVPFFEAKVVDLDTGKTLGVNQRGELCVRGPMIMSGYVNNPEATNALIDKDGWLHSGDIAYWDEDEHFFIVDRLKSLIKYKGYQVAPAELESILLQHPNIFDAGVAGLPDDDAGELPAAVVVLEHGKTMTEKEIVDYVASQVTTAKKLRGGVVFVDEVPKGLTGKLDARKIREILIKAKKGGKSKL
# Sequence of Dual specificity protein kinase CLK1 (P49759 whole entry): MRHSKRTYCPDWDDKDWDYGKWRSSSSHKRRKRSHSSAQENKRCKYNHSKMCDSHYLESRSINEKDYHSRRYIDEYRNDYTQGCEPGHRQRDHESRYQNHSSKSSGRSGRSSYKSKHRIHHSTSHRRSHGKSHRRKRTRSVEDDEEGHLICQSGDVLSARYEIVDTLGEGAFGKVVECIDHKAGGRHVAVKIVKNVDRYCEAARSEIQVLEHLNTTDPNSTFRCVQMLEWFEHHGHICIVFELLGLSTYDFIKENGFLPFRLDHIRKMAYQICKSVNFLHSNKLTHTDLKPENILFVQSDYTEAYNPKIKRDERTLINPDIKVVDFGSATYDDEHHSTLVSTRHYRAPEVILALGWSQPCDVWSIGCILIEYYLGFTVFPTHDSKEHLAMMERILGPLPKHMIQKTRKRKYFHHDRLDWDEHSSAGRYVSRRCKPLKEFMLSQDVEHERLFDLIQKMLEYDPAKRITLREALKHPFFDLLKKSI
# Sequence of Cytochrome P450 3A4 (P08684 whole entry): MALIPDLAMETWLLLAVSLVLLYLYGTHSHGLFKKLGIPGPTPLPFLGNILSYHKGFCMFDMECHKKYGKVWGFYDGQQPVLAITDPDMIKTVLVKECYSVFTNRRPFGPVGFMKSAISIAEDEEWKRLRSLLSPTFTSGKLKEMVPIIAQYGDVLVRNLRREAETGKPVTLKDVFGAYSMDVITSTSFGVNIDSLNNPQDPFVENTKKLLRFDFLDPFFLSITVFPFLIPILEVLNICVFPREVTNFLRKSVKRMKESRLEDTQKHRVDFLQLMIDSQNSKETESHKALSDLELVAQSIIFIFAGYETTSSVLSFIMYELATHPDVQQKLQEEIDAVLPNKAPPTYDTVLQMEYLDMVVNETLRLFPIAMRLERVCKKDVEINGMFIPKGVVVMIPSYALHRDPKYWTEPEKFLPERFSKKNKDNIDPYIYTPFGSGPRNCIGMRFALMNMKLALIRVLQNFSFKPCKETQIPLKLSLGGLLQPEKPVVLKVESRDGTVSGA
# Sequence of Induced myeloid leukemia cell differentiation protein Mcl-1 (Q07820 whole entry): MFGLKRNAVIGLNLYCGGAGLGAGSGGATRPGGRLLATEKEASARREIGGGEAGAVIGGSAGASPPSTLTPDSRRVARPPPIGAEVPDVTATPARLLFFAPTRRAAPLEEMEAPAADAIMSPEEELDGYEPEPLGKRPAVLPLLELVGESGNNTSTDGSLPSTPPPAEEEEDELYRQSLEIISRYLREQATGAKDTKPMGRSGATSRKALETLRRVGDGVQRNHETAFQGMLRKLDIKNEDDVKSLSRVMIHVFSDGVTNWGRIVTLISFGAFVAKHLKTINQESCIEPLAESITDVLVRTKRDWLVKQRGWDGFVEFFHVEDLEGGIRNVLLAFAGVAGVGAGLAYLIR
# Sequence of Phospholipase A2 (P04054 whole entry): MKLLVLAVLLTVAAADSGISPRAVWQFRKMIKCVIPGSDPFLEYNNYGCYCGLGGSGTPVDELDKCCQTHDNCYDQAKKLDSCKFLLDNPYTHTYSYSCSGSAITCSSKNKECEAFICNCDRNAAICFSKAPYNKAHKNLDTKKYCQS
compound,measurement,setting,value
NC(=O)CNCCC(c1ccccc1)c1ccccc1,AC50,[1],15.8 µM (inconclusive)
same,AC50,[2],2 µM (inconclusive)
same,AC50,[3],20 µM (inconclusive)
Cc1c(CCOC(=O)C23CC4(C)CC(C)(CC(C)(C4)C2)C3)sc[n+]1CC(=O)c1ccccc1,IC50,[4],8.77 µM (active)
same,AC50,[5],5.84 µM (active)
same,AC50,[6],23.6 µM (active)
same,IC50,[7],8.57 µM (active)
same,EC50,[8],> 38 µM (not active)
same,EC50,[9],> 150 µM (inactive)
same,AC50,[10],7.21 µM (active)
same,IC50,[11],> 20 µM (inactive)
COc1ccc(-c2nc(CSCC(=O)NCc3ccco3)c(C)o2)cc1,IC50,[12],67.1 µM (inactive)
same,IC50,[13],> 80 µM (inactive)
O=C(CCl)N(c1ccccc1)C1CCCCC1,AC50,[14],7.54 µM (active)
same,AC50,[15],4.88 µM (active)
same,AC50,[16],3.98 µM (active)
same,AC50,[17],4.51 µM (active)
same,EC50,[18],4.98 µM (active)
same,AC50,[19],10.7 µM (active)
COc1cc2c(cc1OC)-c1cc(Nc3ccccc3Br)nc(=O)n1CC2,IC50,[20],> 80 µM (inactive)
same,EC50,[21],> 112 µM (not active)
same,EC50,[22],0.115 µM (active)
same,EC50,[23],26.2 µM (active)
same,EC50,[24],13.4 µM (active)
same,IC50,[25],> 80 µM (inactive)
O=C(Nc1nc(-c2ccncc2)cs1)c1ccco1,IC50,[26],4.34 µM (active)
same,AC50,[27],2.56 µM (active)
same,AC50,[28],1.92 µM (active)
N#Cc1sc2nc(-c3ccccc3)cc(-c3ccco3)c2c1N,IC50,[29],40.7 µM (inactive)
same,IC50,[30],> 128 µM (inactive)
Cc1cc(N2CCNCC2)nc2ccccc12,IC50,[31],20.4 µM (active)
